Results as given in ChEMBL document CHEMBL4706659, “Design, synthesis and biological evaluation of novel 2,4-diaryl pyrimidine derivatives as selective EGFR inhibitors” (Eur J Med Chem, 2021).

Tests used:
[1] = Selectivity ratio of IC50 for HK-2 cells to IC50 for antiproliferative activity against human NCI-H1975 cells
[2] = target: Epidermal growth factor receptor (Homo sapiens, UniProt P00533, L858R/T790M); test: Inhibition of recombinant human GST-tagged EGFR T790M/L858R double mutant (668 to 1210 residues) expressed in baculovirus expression system using Tyr 4 as substrate incubated for 60 mins by Z'-Lyte assay
L02 = test: Cytotoxicity against human L02 cells assessed as reduction in cell viability by MTT assay; format: cell-based
NCI-H1975 = test: Induction of apoptosis in human NCI-H1975 cells harboring EGFR T790M/L858R mutant assessed as late apoptotic cells at 5 nM measured after 72 hrs by Annexin-V-FITC/propidium iodide staining based flow cytometry (reference value: 0.13%); format: functional

Epidermal growth factor receptor, sequence (P00533 25-1210 T790M/L858R limits assumed): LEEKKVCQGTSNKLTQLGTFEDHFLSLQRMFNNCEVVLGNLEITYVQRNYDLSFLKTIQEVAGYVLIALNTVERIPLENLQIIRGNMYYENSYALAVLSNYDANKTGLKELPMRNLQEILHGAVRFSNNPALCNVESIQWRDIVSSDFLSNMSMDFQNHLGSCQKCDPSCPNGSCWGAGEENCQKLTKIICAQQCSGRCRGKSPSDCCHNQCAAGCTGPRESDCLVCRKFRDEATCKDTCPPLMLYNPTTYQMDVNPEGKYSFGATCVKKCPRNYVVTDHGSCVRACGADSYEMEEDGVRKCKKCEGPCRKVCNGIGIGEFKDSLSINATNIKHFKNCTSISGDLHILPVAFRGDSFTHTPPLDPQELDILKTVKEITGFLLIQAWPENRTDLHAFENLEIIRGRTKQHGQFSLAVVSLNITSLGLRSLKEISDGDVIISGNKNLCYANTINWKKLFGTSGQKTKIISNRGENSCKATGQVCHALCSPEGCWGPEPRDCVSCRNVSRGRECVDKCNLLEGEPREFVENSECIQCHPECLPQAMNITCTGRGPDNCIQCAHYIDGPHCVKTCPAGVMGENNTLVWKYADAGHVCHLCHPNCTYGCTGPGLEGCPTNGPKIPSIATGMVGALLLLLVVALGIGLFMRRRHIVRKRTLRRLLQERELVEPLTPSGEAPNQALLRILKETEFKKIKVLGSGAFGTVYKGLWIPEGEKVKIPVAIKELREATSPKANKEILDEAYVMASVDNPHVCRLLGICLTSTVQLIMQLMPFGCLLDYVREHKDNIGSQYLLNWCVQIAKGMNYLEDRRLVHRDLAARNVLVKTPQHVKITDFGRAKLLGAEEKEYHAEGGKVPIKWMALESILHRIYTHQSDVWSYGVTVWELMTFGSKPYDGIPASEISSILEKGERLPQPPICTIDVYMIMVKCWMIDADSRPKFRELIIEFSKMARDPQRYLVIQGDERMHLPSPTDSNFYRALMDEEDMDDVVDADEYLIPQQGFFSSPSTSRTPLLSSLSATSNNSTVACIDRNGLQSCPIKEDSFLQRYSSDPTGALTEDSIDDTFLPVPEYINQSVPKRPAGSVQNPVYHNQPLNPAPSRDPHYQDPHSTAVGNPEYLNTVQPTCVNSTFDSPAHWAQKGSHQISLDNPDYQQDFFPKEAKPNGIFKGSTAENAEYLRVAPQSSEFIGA

C=CC(=O)Nc1cc(Nc2nccc(-c3cn(C4CC4)c4ccccc34)n2)c(OC)cc1[S+]([O-])CCN(C)C (centres undefined)
Ratio IC50 [1]: 733 | IC50 [2]: 0.00026 µM | IC50 (L02): 4.67 µM | Activity (NCI-H1975): 17.07%
